# Source: patent US20250296909A1, “NOVEL BENZENE DERIVATIVE AND IMMUNOSUPPRESSION-RELATED USE THEREOF” (PROVIBIO CO., LTD., priority 2021, published 2025)
# Columns and labels:
# [1] = test system: spleen T cells; test: T cell proliferation inhibition (CFSE, FACS), CD3/CD28-activated spleen T cells; assay type: cell-based, C57BL/6 mice; conditions: Table 2, 3 days, relative to CD3/CD28+DMSO; for inhibition at 10 µM / inhibition at 30 µM / inhibition at 50 µM: Mus musculus, T-cell, 72 h, read-out: Proliferation inhibition rate (%)
# Experimental: To investigate whether the compounds obtained in the Preparation Example have an inhibitory effect on T cell proliferation, the T cell proliferation was determined ex vivo using the fluorescent dye carboxyfluorescein diacetate succinimidyl ester (CFSE), which binds to intracellular molecules by covalent bonds.
# Spleens were harvested and minced from C57BL/6 mice at 7 weeks of age, and then single cells were isolated using a strainer (40 μm pore size, SPL). Red blood cells were removed using ACK (Ammonium-Chloride-Potassium) lysis buffer to isolate only leukocytes. Subsequently, CD90.2 microbeads (130-121-278, Miltenyi Biotech.) were added, and subjected to react at 4° C. for 20 minutes. After that, spleen T cells were isolated using a MACS Magnetic Stand and LS column. The isolated T cells from the spleen were resuspended in 1 mL of Free media (RPMI-1640+200 U/mL penicillin+200 μg/mL streptomycin), followed by the addition of 0.3 μL of CFSE (10 mM), and reacted at 37° C. for 5 minutes. Subsequently, 10 mL of Free media was added to stop the reaction, and the cells were centrifuged to obtain the cell pellet. RPMI 1640 medium containing 10% FBS, 100 U/mL penicillin, and 100 μg/mL streptomycin was added to suspend the cells, and 2×10^5 cells per well were seeded into a 96-well plate and T cells were activated by treatment with CD3 and CD28 antibodies (each at 0.5 μg/mL).
# The compound diluted in DMSO was treated in triplicate at concentrations of 10 μM, 30 μM, and 50 μM, respectively. After incubation at 37° C. with 5% CO2 for 3 days, cell proliferation levels were determined using a FACS Canto machine.
# In the FACS graph of FIG. 1, the y-axis represents the quantity (number) of cells, while the x-axis represents the fluorescence level of the cells. […] This reduction in CFSE fluorescence results in a leftward shift along the x-axis in the graph. This indicates cell proliferation.
# To collectively indicate the proliferation inhibition rate for the experimental results, the relative value of the proliferation amount after compound administration to the proliferation amount after CD3/CD28+DMSO administration was calculated. Subsequently, it was converted into an inhibition amount and expressed as a percentage, thereby determining the proliferation inhibition rate. Specifically, the proliferation inhibition rate was calculated as follows: […]
# [2] = test system: T lymphocyte cell line Jurkat E6-1; test: Cytotoxicity experiment (CCK-8, relative cell survival); assay type: cell-based; conditions: 24 hours, untreated cells = 100%
# Experimental: To evaluate the cytotoxicity of the compound according to the present invention, the following experiment was conducted.
# The T lymphocyte cell line Jurkat E6-1, purchased from the Korean Cell Line Bank, was cultured in RPMI-1640 medium comprising 10% FBS, 100 U/mL penicillin, and 100 μg/mL streptomycin. After culturing, the cells were harvested and centrifuged at 1,300 rpm for 5 minutes. After removal of the supernatant, the cells were resuspended in the same medium at a concentration of approximately 2.2×10^5 cells/mL, and 90 μL of the cell suspension was distributed per well into a 96-well plate (Costar 96 well cell culture plate, Corning). After treating 10 μL of each compound at different concentrations onto the respective wells of the plate, it was cultured for 24 hours at 37° C. in a 5% CO2 incubator. Subsequently, 10 μL of CCK-8 was added to each well, and it was cultured again for 2 hours at 37° C. in a 5% CO2 incubator. Absorbance was then measured at 450 nm to determine the relative cell survival rate compared to untreated cells, as shown in Table 4.
# The values listed in Table 4 represent the relative cell survival rates in the groups treated with each compound at different concentrations, with the cell survival rate of untreated cells set as 100%.
Compound,inhibition at 10 µM ([1]; 10 μM) [%],inhibition at 30 µM ([1]; 30 μM) [%],inhibition at 50 µM ([1]; 50 μM) [%],Relative cell survival rate (%) ([2]; 10 μM),Relative cell survival rate (%) ([2]; 20 μM),Relative cell survival rate (%) ([2]; 30 μM),Relative cell survival rate (%) ([2]; 50 μM),Proliferation inhibition rate (%) ([1]; 10 μM),Proliferation inhibition rate (%) ([1]; 30 μM),Proliferation inhibition rate (%) ([1]; 50 μM)
CCCCCCCCCCCCNC(=O)c1ncc(F)cc1F [Compound 34],6,43,87,112,109,101,87,,,
C=Cc1ccccc1C(=O)NCCCCCCCCCCCC [Compound 57],93,100,100,108,108,104,101,,,
CCCCCCCCCCCCNC(=O)c1c(F)cccc1[N+](=O)[O-] [Compound 64],79,100,100,91,87,87,87,,,
CCCCCCCCCCCCNC(=O)c1cccc(Cl)c1N [Compound 29],5,33,65,107,80,77,60,,,
CCCCCCCCCCCCNS(=O)(=O)c1ccccc1F [Compound 45],,,,96,94,76,74,30,59,97
CCCCCCCCCCCCNS(=O)(=O)c1ccccc1[N+](=O)[O-] [Compound 58],39,51,68,100,98,97,94,,,
CCCCCCCCCCCCNC(=O)c1ccccc1-c1ccc(C)cc1 [Compound 27],62,96,100,109,77,71,63,,,
CCCCCCCCCCCCNC(=O)c1cccnc1Br [Compound 76],,,,115,95,92,70,36,49,65
CCCCCCCCCCCCNC(=O)c1ccncc1N [Compound 68],57,67,100,92,91,88,82,,,
CCCCCCCCCCCCNC(=O)c1ccccc1C(F)(F)F [Compound 38],,,,90,91,89,89,40,73,85
